# Test results reported in PMC2783557 (Brain, behavior, and immunity, 2009).
# Assays:
# [1] = system: Male CD-1 mice; assay: Brain uptake; format: in vivo, mouse; details: indomethacin 20 mg/kg ip 30 min before LPS 3 mg/kg; n = 6-8/group
# [2] = system: Tg2576 mice; details: chronic treatment from 8-15 months of age, ref Sheng et al., 2003; cited from earlier work
smiles,measurement,setting,value
COc1ccc2c(c1)c(CC(=O)O)c(C)n2C(=O)c1ccc(Cl)cc1 [Indomethacin],effect of LPS on brain uptake (influx) of I-Aβ,[1],did not reverse
same,levels of soluble Aβ40 and Aβ42 in the hippocampus and cortex,[2],significantly reduce
